Reference: patent US6737383B1, “Herbicidal oxadiazolidines” (priority 1999, dated 2004)

How the values were obtained:
[1] = system: bedstraw; assay: Test B pre/postemergence bedstraw; format: in vivo, Galium aparine; conditions: Preemergence; for Bedstraw plant response rating: scale of 0 to 10 where 0 is no effect and 10 is complete control
Method in brief: (§1)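 Herbicidal effect was estimated by eye on a ten-point control scale after plants spent twelve to sixteen days in a greenhouse following soil or foliar treatment. Foliar sprays targeted plants at one to four leaves; all doses were formulated in a non-phytotoxic solvent with surfactant.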

[2] = system: blackgrass; assay: Test B pre/postemergence blackgrass; format: in vivo, Alopecurus myosuroides
Method in brief: as §1

[3] = system: surinam grass; assay: Test B pre/postemergence surinam grass; format: in vivo, Brachiaria decumbens
Method in brief: as §1

[4] = system: cocklebur; assay: Test B pre/postemergence cocklebur; format: in vivo, Xanthium strumarium
Method in brief: as §1

[5] = system: crabgrass; assay: Test B pre/postemergence crabgrass; format: in vivo, Digitaria sanguinalis
Method in brief: as §1

[6] = system: giant foxtail; assay: Test B pre/postemergence giant foxtail; format: in vivo, Setaria faberii
Method in brief: as §1

[7] = system: morningglory; assay: Test B pre/postemergence morningglory; format: in vivo, Ipomoea hederacea
Method in brief: as §1

[8] = system: pigweed; assay: Test B pre/postemergence pigweed; format: in vivo, Amaranthus retroflexus
Method in brief: as §1

[9] = system: sugar beet; assay: Test B pre/postemergence sugar beet; format: in vivo, Beta vulgaris
Method in brief: as §1

[10] = system: velvetleaf; assay: Test B pre/postemergence velvetleaf; format: in vivo, Abutilon theophrasti
Method in brief: as §1

[11] = system: wheat; assay: Test B pre/postemergence wheat; format: in vivo, Triticum aestivum
Method in brief: as §1

[12] = system: wild oat; assay: Test B pre/postemergence wild oat; format: in vivo, Avena fatua
Method in brief: as §1

[13] = system: purple nutsedge; assay: Test B pre/postemergence purple nutsedge; format: in vivo, Cyperus rotundus
Method in brief: as §1

[14] = system: rice; assay: Test B flood test rice; format: in vivo, Oryza sativa; conditions: Pre-emergence
Method in brief: (§2)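 Flood test on plants grown to the 2-leaf stage; treated plants kept in greenhouse twelve to sixteen days, then visually rated against controls on a 0 (no effect) to 10 (complete control) scale.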

[15] = system: duck salad; assay: Test B flood test duck salad; format: in vivo, Heteranthera limosa; conditions: Pre-emergence
Method in brief: as §2

[16] = system: bamyardgrass; assay: Test B flood test barnyardgrass; format: in vivo, Echinochloa crus-galli; conditions: Pre-emergence
Method in brief: as §2

[17] = Rate 1000 g/ha, scale 0 to 10 (0 no effect, 10 complete control)
[18] = Postemergence, Rate 125 g/ha, scale 0 to 10, 0 is no effect, 10 is complete control
[19] = Postemergence, Rate 250 g/ha, scale 0 to 10, 0 is no effect, 10 is complete control
[20] = Postemergence, Rate 1000 g/ha, scale 0 to 10 (0 no effect, 10 complete control)
[21] = Preemergence, Rate 250 g/ha, scale of 0 to 10 where 0 is no effect and 10 is complete control
[22] = Preemergence, Rate 500 g/ha, scale of 0 to 10 where 0 is no effect and 10 is complete control
[23] = Rate 500 g/ha, Postemergence, scale 0 to 10, 0 no effect, 10 complete control
[24] = Rate 1000 g/ha, Preemergence, scale 0 to 10 (0 no effect, 10 complete control)
[25] = Rate 125 g/ha, flood test species, scale 0 to 10 where 0 is no effect and 10 is complete control
[26] = Rate 250 g/ha, flood-test species, scale 0 to 10, 0 is no effect, 10 is complete control
[27] = Rate 500 g/ha, flood test species, scale 0 to 10 (0 no effect, 10 complete control)

CCOC(=O)C(C)N(C(=O)n1oc(=O)n(C)c1=O)c1ccc(F)cc1 (stereo not drawn) [Compound 365]
Bedstraw plant response rating (0 to 10 scale) ([1]; Rate 125 g/ha): 0
Bedstraw plant response rating ([1]; Rate 250 g/ha): 0
Bedstraw plant response rating ([1]; Rate 500 g/ha): 0
Plant response rating, Bedstraw [1, 17]: 0
Plant response rating, Blackgrass [2, 18]: 0
Plant response rating, Blackgrass [2, 19]: 0
Blackgrass plant response rating [2, 20]: 0
Blackgrass plant response rating (0 to 10 scale) ([2]; Preemergence, Rate 125 g/ha): 0
Blackgrass plant response rating [2, 21]: 0
Blackgrass plant response rating [2, 22]: 0
Plant response rating, Blackgrass [2, 23]: 0
Plant response rating, Blackgrass [2, 24]: 0
Plant response rating, B. signalgrass [3, 18]: 0
Plant response rating, B. signalgrass [3, 19]: 0
B. signalgrass plant response rating [3, 20]: 0
B. signalgrass plant response rating (0 to 10 scale, 0 is no effect, 10 is complete control) ([3]; Preemergence, Rate 125 g/ha): 0
B. signalgrass plant response rating [3, 21]: 0
B. signalgrass plant response rating [3, 22]: 0
Plant response rating, B. signalgrass [3, 23]: 0
Plant response rating, B. signalgrass [3, 24]: 0
Plant response rating, Cocklebur [4, 18]: 0
Plant response rating, Cocklebur [4, 19]: 0
Cocklebur plant response rating [4, 20]: 0
Cocklebur plant response rating (0 to 10 scale) ([4]; Preemergence, Rate 125 g/ha): 0
Cocklebur plant response rating [4, 21]: 0
Cocklebur plant response rating [4, 22]: 0
Plant response rating, Cocklebur [4, 23]: 0
Plant response rating, Cocklebur [4, 24]: 0
Plant response rating, Crabgrass [5, 18]: 0
Plant response rating, Crabgrass [5, 19]: 0
Crabgrass plant response rating [5, 20]: 0
Crabgrass plant response rating (0 to 10 scale) ([5]; Preemergence, Rate 125 g/ha): 0
Crabgrass plant response rating [5, 21]: 0
Crabgrass plant response rating [5, 22]: 4
Plant response rating, Crabgrass [5, 23]: 0
Plant response rating, Crabgrass [5, 24]: 8
Plant response rating, Giant foxtail [6, 18]: 0
Plant response rating, Giant foxtail [6, 19]: 0
Giant foxtail plant response rating [6, 20]: 0
Giant foxtail plant response rating (0 to 10 scale) ([6]; Preemergence, Rate 125 g/ha): 0
Giant foxtail plant response rating [6, 21]: 0
Giant foxtail plant response rating [6, 22]: 3
Plant response rating, Giant foxtail [6, 23]: 0
Plant response rating, Giant foxtail [6, 24]: 9
Plant response rating, Morningglory [7, 18]: 0
Plant response rating, Morningglory [7, 19]: 0
Morningglory plant response rating [7, 20]: 0
Morningglory plant response rating (0 to 10 scale) ([7]; Preemergence, Rate 125 g/ha): 0
Morningglory plant response rating [7, 21]: 0
Morningglory plant response rating [7, 22]: 0
Plant response rating, Morningglory [7, 23]: 0
Plant response rating, Morningglory [7, 24]: 0
Plant response rating, Redroot pigweed [8, 18]: 0
Plant response rating, Redroot pigweed [8, 19]: 0
Redroot pigweed plant response rating [8, 20]: 0
Redroot pigweed plant response rating (0 to 10 scale) ([8]; Preemergence, Rate 125 g/ha): 0
Redroot pigweed plant response rating [8, 21]: 0
Redroot pigweed plant response rating [8, 22]: 0
Plant response rating, Redroot pigweed [8, 23]: 0
Plant response rating, Redroot pigweed [8, 24]: 0
Plant response rating, Sugarbeets [9, 18]: 0
Plant response rating, Sugarbeets [9, 19]: 0
Sugarbeets plant response rating [9, 20]: 0
Sugarbeets plant response rating (0 to 10 scale) ([9]; Preemergence, Rate 125 g/ha): 0
Sugarbeets plant response rating [9, 21]: 0
Sugarbeets plant response rating [9, 22]: 0
Plant response rating, Sugarbeets [9, 23]: 0
Plant response rating, Sugarbeets [9, 24]: 0
Plant response rating, Velvetleaf [10, 18]: 0
Plant response rating, Velvetleaf [10, 19]: 0
Velvetleaf plant response rating [10, 20]: 0
Velvetleaf plant response rating (0 to 10 scale) ([10]; Preemergence, Rate 125 g/ha): 0
Velvetleaf plant response rating [10, 21]: 0
Velvetleaf plant response rating [10, 22]: 0
Plant response rating, Velvetleaf [10, 23]: 0
Plant response rating, Velvetleaf [10, 24]: 0
Plant response rating, Wheat [11, 18]: 0
Plant response rating, Wheat [11, 19]: 0
Wheat plant response rating [11, 20]: 0
Wheat plant response rating (0 to 10 scale) ([11]; Preemergence, Rate 125 g/ha): 0
Wheat plant response rating [11, 21]: 0
Wheat plant response rating [11, 22]: 0
Plant response rating, Wheat [11, 23]: 0
Plant response rating, Wheat [11, 24]: 0
Plant response rating, Wild oats [12, 18]: 0
Plant response rating, Wild oats [12, 19]: 0
Wild oats plant response rating [12, 20]: 0
Wild oats plant response rating (0 to 10 scale) ([12]; Preemergence, Rate 125 g/ha): 0
Wild oats plant response rating [12, 21]: 0
Wild oats plant response rating [12, 22]: 0
Plant response rating, Wild oats [12, 23]: 0
Plant response rating, Wild oats [12, 24]: 0
Plant response rating, Nutsedge [13, 18]: 0
Plant response rating, Nutsedge [13, 19]: 0
Nutsedge plant response rating [13, 20]: 0
Nutsedge plant response rating [13, 21]: 0
Nutsedge plant response rating [13, 22]: 0
Plant response rating, Nutsedge [13, 23]: 0
Plant response rating, Nutsedge [13, 24]: 0
Rice plant response rating [14, 17]: 0
Rice plant response rating [14, 25]: 0
Rice plant response rating [14, 26]: 0
Rice plant response rating [14, 27]: 0
Ducksalad plant response rating [15, 17]: 0
Ducksalad plant response rating [15, 25]: 0
Ducksalad plant response rating [15, 26]: 0
Ducksalad plant response rating [15, 27]: 0
Barnyardgrass plant response rating [16, 17]: 0
Barnyardgrass plant response rating [16, 25]: 0
Barnyardgrass plant response rating [16, 26]: 0
Barnyardgrass plant response rating [16, 27]: 0
